Values after ≈ are worked out from the molar mass of the structure shown. Like-named read-outs stand apart in the source and are kept apart here.
Experiments:
[1] = target: human ether-a-go-go related gene (hERG) channel (Homo sapiens, UniProt Q12809); experiment: hERG inhibition assay (SyncroPatch automated patch clamp)
Procedure: Inhibition of compounds on human ether-a-go-go related gene (hERG) channel was evaluated using a SyncroPatch 3848/384 automated patch clamp system. The SynchroPatch system is an independent method of measuring ion flux through ion channel proteins by measuring currents induced by ion flux into and out of the cell.
CHO herg-DUO cells stably expressing hERG channel were cultured in a medium containing F12 (HAM) medium, 10% FBS, 100 μg/mL penicillin-streptomycin, […] hygromycin and 100 µg/mL G418. Cells were split using TrypLE™ Express about three times a week, and maintained at about 80% confluence.
Compounds were prepared as a 50 mM stock solution in DMSO. The stock solution of each compound was serially diluted with DMSO to prepare 30 mM, 10 mM, 3.3 mM and 1.1 mM solutions. Working solutions 60 μM, 20 μM, 6.6 μM and 2.22 μM were prepared by 500-fold dilution of the […], 30 mM, 10 mM, 3.3 mM and 1.1 mM solutions, respectively using extracellular NMDG60 solution (80 mM NaCl, 60 mM N-methyl-d-glucamine, 4 mM KCl, 2 mM CaCl2, 1 mM MgCl2, 5 mM D-glucose and 10 mM HEPES).
Cells were harvested and added to SyncroPatch 384 chip (Nanion Technologies) and washed four times. Following establishment of the whole-cell voltage clamp configuration, cells were set to a holding potential of −90 mV for measured for 500 ms and currents were at 500 Hz and filtered at 3 kHz. The hERG current was elicited by depolarizing the membrane to +30 mV for 4.8 sec and the voltage was then taken back to −50 mV for 5.2 sec to remove the inactivation and measure the deactivating tail current for a sample interval of 15 s. The maximum amount of tail current size was used to determine hERG current amplitude. hERG current in the presence of test compounds was recorded for at least 5 min to reach a steady state and then 5 sweeps were captured. If a steady state was not reached within 10 minutes, the average peak current of the last 5 sweeps was substituted for the steady state value.

HCT116 colorectal cells = experiment: Cell viability assay (CellTiter-Glo) in HCT116 cells; type: cell-based; conditions: Homo sapiens
Procedure: HCT116 colorectal cells were used in these experiments. HCT116 cells were obtained from ATCC. The CellTiter-Glo® Luminescent Cell Viability Assay Reagent was obtained from Promega.
Into a 96-well plate, 3000 HCT116 cells were seeded with 100 μL of media (McCoy's 5A Medium supplemented with 10% FBS, 100 units penicillin, and 100 μg streptomycin per mL) 24h before the experiment. For compound treatment, the liquid handling system-Pico machine was used to prepare all the compounds. Each master plate contained serial dilution of 2 compounds, including the control compound E7820. 10 mM compound stock was added to each well of the assay plate to give final concentrations of […], 0.003, 0.002 and 0 μM. Each concentration was tested in triplicate. After 72h, cell viability was determined using CellTiter-Glo Luminescent Cell Viability Assay Reagent following the manufacturer's recommended protocol. Briefly, equilibrate the assay plate and its contents at room temperature for approximately 30 minutes. 100 μL of CellTiter-Glo reagent was added to each well of the assay plate and the contents were mixed for 2 minutes at 500 rpm on an orbital shaker to induce cell lysis (Fisherbrand). The plate was incubated at room temperature for 10 minutes to stabilize luminescent signal. Then the plate was immediately placed in a plate reader (PerkinElmer Multimode Plate Reader Envision2105) and the luminescence signal (0.5 second per well integration time) was determined. IC50 values were calculated using Graphpad Prism 9 software.
Cell viability assays were performed to compare the potency of Compound 1 to Compound 143.

[2] = Telencephalon concentrations after oral administration; type: in vivo, female BALB/c mice; conditions: for AUC(0-t) / Cmax: mouse, 20 mg/kg, telencephalon, female BALB/c mice, Table 8
[3] = General solubility protocol (PBS, pH 7.4); type: physicochemical; conditions: PBS buffer, aqueous buffer, kinetic from dmso stock, pH 7.4, 25° C.
Procedure: Into a 96-well rack, 15 μL of stock solution (10 mM) of each sample was placed. Into each vial of a cap-less Solubility Sample plate 485 μL of buffer was added. The assay was performed in duplicate. To each vial one stir stick was added and each vial was sealed using a molded PTFE/Silicone plug. The Solubility Sample plate was then transferred to an Eppendorf Thermomixer Comfort plate shaker and shake at 25° C. at 1100 RPM for 2 hours. […] Using a vacuum manifold, all the samples were filtered. An aliquot of 5 μL was taken from the filtrate and 5 μL blank DMSO followed by addition of 490 μL of a mixture of H2O and acetonitrile containing an internal standard (1:1). The dilution factor may be changed according to the solubility value and the LC/MS signal response.

[4] = HCT-116, 72h, CellTiter-Glo, read-out: HCT116 Assay (IC50)
[5] = HCT-116, FIG. 5, read-out: IC50 for inhibiting cell growth in HCT116 colorectal cells

Chain of human ether-a-go-go related gene (hERG) channel (Q12809 whole entry): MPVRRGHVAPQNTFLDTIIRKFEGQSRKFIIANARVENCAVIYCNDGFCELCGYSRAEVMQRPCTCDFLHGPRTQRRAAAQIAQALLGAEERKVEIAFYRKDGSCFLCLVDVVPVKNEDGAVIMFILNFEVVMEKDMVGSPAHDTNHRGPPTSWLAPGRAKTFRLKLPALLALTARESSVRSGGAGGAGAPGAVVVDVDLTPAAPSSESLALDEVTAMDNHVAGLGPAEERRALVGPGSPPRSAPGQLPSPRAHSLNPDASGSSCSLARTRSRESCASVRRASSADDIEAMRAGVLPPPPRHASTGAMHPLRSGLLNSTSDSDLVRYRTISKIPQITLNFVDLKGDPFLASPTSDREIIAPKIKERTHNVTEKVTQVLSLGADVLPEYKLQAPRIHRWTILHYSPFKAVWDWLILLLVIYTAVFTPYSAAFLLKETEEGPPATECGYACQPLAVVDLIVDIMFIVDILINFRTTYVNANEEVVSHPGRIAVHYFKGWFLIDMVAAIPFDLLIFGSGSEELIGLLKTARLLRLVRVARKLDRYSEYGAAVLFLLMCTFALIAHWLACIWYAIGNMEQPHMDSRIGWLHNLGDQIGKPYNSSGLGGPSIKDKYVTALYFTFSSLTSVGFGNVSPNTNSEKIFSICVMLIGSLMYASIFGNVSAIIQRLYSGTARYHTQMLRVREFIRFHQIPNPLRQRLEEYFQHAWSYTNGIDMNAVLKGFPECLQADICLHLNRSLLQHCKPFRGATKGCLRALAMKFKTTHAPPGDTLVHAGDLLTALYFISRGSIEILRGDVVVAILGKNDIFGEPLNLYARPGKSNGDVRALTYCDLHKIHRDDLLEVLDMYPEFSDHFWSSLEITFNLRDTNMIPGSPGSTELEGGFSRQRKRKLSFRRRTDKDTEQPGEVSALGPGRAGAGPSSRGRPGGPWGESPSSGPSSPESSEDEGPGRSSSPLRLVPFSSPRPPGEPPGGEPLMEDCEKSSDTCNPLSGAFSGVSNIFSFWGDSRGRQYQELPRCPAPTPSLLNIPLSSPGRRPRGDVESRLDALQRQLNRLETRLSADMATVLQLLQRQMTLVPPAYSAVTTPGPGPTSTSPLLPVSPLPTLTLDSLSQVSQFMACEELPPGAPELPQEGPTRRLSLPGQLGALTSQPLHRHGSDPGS

IC50 (HCT116 colorectal cells; [4]) [nM]	IC50 (HCT116 colorectal cells; [5]) [nM]	increase in telencephalon AUC compared to Compound 1 ([2]; compared to Compound 1) [fold]	AUC(0-t) [2] [ng·h/mL]	Cmax [2] [ng/mL]	solubility at 2 h [3] [µM]	increase in telencephalon AUC compared to E7820 ([2]; compared to E7820) [fold]	SMILES	IC50 [1] [nM]	hERG inhibition compared to E7820 [1]
< 500	255	2.5	2060	373	–	–	[2H]C([2H])([2H])c1ncc(S(=O)(=O)Nc2ccc(C)c3c(C#N)c[nH]c23)s1 [Compound 143, N-(3-cyano-4-methyl-1H-indol-7-yl)-2-(methyl-d3)thiazole-5-sulfonamide]	> 50000	less inhibition
–	–	–	–	–	80.7 (≈ 27.2 µg/mL)	–	Cc1ccc(NS(=O)(=O)c2cccc(C#N)c2)c2[nH]cc(C#N)c12 [Compound E7820, E7820, reference compound]	48400	–
< 500	259	–	774	193	51.5 (≈ 17.1 µg/mL)	2	Cc1ncc(S(=O)(=O)Nc2ccc(C)c3c(C#N)c[nH]c23)s1 [Compound 1, N-(3-cyano-4-methyl-1H-indol-7-yl)-2-methyl-thiazole-5-sulfonamide]	> 50000	less inhibition

— patent publication US20260116874A1, “HETEROAROMATIC INDOLESULFONAMIDES” (SEED Therapeutics, Inc., priority 2023, published 2026)
